Data from the METLIN SMRT retention time set (Domingo-Almenara et al. 2019).

Test: gradient 5% acetonitrile 3 min, to 50% in 2 min, to 85% in 15 min, held 3 min, 100 µL/min
Conditions: column: Zorbax Extend-C18 2.1 x 50 mm; eluents: water / acetonitrile, 0.1% formic acid
How it was run: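 Using water and acetonitrile that each contained 0.1% formic acid, mixtures of ~100 pure standards were separated at 100 μL/min on a Zorbax Extend-C18 column (2.1 × 50 mm, 1.8 μm). The HPLC fed a quadrupole time-of-flight mass spectrometer working in positive and negative ionization mode, with dead and dwell volumes of 40 μL and 900 μL. Data were acquired over 3 months. Retention time was read from computationally picked adduct peaks after manual inspection of each.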

Row | SMILES | RP-LC retention time [s]
1 | CCOCCCNC(=O)N1CCc2cc(-c3ccc(C(=O)N4CCOCC4)cc3)ccc21 | 608
2 | Cc1cc(F)ccc1NC(=O)C1CCN(C(=O)c2ncn3c2COC(c2ccc(F)cc2)C3)CC1 (stereo not drawn) | 736
3 | CCCNc1cc(N2CCC(CCC(=O)Nc3ccccc3)CC2)ncn1 | 704
4 | O=C(Nc1ccccc1)C12CC1/C(=N\O)c1ccccc1O2 (stereo not drawn) | 825
5 | CNc1cc(NS(=O)(=O)c2ccc(N)cc2)nc(NC)n1 | 370
6 | CCCN(CC1CCOC1)S(=O)(=O)c1cc(F)ccc1C (stereo not drawn) | 943
7 | O=S(=O)(Nc1cccn2ncnc12)c1ccccc1Cl | 742
8 | CCOc1ccc(-c2ccc(=O)n(Cc3nc(-c4ccc5c(c4)OCO5)no3)n2)cc1 | 1050
9 | O=C(C1CC1)N1CCc2sc(S(=O)(=O)Nc3ccc(N4CCOCC4)cc3)cc2C1 | 743
10 | CCc1c(C(=O)O)nnn1-c1ccc2c(c1)OCCO2 | 702
11 | Cc1ccc(NC(=O)C2CC(=O)N(CCc3c[nH]c4ccc(C)cc34)C2)cc1 (stereo not drawn) | 843
12 | CCc1ccc(CNC(=O)Cn2cnc3nc4c(cc3c2=O)CCCC4)cc1 | 765
13 | COc1ccc(C2C(C)C(=O)C(C)C(c3ccc(OC)cc3)N2N=O)cc1 (stereo not drawn) | 1000
14 | CCOc1ccccc1NC(=O)N1CCC(CN2CCC(C)CC2)CC1 | 582
15 | O=C(c1ccsc1)N1CCC(c2nncn2-c2ccccc2)CC1 | 630
16 | COC(=O)c1c(NCC(C)C)c2cc(F)ccc2[nH]c1=O | 734
17 | COCCCNC(=O)C1CCN(Cc2cc3ccccc3n2Cc2ccccc2)CC1 | 684
18 | COc1cccc(-c2csc(Cc3nc(-c4ccc(Br)cc4)no3)n2)c1 | 1280
19 | COC(=O)c1ccc(-c2csc(NC(=O)c3c(F)cccc3Cl)n2)cc1 | 945

Row | SMILES | RP-LC retention time [s]
20 | Cc1nc(Cn2cccc2C(=O)Nc2ccc(Br)c(C)c2)no1 | 995
21 | Cc1c(CC(=O)NCC(C)C)c(=O)n2nc(-c3ccccc3)nc2n1C | 717
22 | O=C([C@@H]1C[C@H](F)CN1S(=O)(=O)Cc1ccccc1F)N1CCc2ccccc2C1 | 919
23 | COc1ncc(C(=O)Nc2ccc(Cl)cc2)c(C)n1 | 786
24 | CCn1c(CN2CCN(S(C)(=O)=O)CC2)nc2cc(NC(=O)C(C)C)ccc21 | 612
25 | Cc1ccc(NS(=O)(=O)c2cc3c(=O)n(C)ncn3c2)cc1C | 849
26 | CC1Oc2ccccc2N(Cc2nc(-c3ccccc3)no2)C1=O (stereo not drawn) | 1040
27 | COCc1nnc([C@@H]2CC(F)(F)CN2Cc2ccc(OC)cc2)o1 | 837
28 | Cc1ccccc1CNc1nc2ccncc2n(C(C)C)c1=O | 745
29 | CCN(CC)c1nc2cc(C(=O)OC)ccc2c(=O)n1-c1ccccc1 | 1110
30 | CCOc1ccc(Nc2ncccc2S(N)(=O)=O)cc1 | 773
31 | CCN(C(=O)C(=O)c1c[nH]c2ccccc12)c1cccc(Cl)c1 | 882
32 | CCCNC(=O)CC1CCN(C(=O)c2c(C)[nH]c(C(=O)OCC)c2C)CC1 | 653
33 | COc1cccc(-c2cc3c(=O)n(CC(O)c4ccccc4)ccn3n2)c1 (stereo not drawn) | 860
34 | O=C(Cn1c(=O)c2cc(-c3cccs3)nn2c2ncccc21)Nc1ccc(Cl)cc1 | 932
35 | COc1cc(NS(=O)(=O)c2cc3n(c2)CCN(C(C)C)C3=O)cc(OC)c1 | 748
36 | COc1ccc(OC)c(CNC(=O)C2CCN(c3cncnc3N3CCCCC3)CC2)c1 | 688
37 | NC(=O)C1CCN(C(=O)CN2CCN(c3ccccc3)CC2)CC1 | 582
38 | Cc1nnc2c(=O)n(CC(=O)N3CCCCC3)c3cccnc3n12 | 616
